Assay results published in ChEMBL document CHEMBL1152722, “5-Aryl-4-(5-substituted-2,4-dihydroxyphenyl)-1,2,3-thiadiazoles as inhibitors of Hsp90 chaperone” (Bioorg Med Chem Lett, 2009).

Legend:
HeLa = test: Growth inhibition of human HeLa cells after 72 hrs by XTT assay; type: functional
U2OS = test: Growth inhibition of human U2OS cells after 72 hrs by XTT assay; type: functional
[1] = molecular target: Heat shock protein HSP 90-alpha (Homo sapiens, UniProt P07900)
Description: Binding affinity to human full length Histidine6-tagged Hsp90alpha expressed in Escherichia coli BL21 DE3 by ITC

Heat shock protein HSP90 = Heat shock protein HSP90 (Homo sapiens, UniProt P07900+P08238)
Description: Binding affinity to human Histidine6-tagged Hsp90alpha N-terminal domain expressed in Escherichia coli BL21 DE3 by ITC

| Structure (SMILES) | GI50 (HeLa) [µM] | GI50 (U2OS) [µM] | Kd [1] [µM] | Kd (Heat shock protein HSP90) [µM] |
| --- | --- | --- | --- | --- |
| COc1ccc(-c2snnc2-c2cc(Cl)c(O)cc2O)cc1OC | 4.2 | 9.9 |  |  |
| COc1ccc(-c2snnc2-c2cc(Cl)c(O)cc2O)cc1 | 2.5 | 6 |  |  |
| Cc1ccc(-c2snnc2-c2cc(Cl)c(O)cc2O)cc1 | 3.3 | 7.1 |  |  |
| CCOc1ccc(-c2snnc2-c2cc(CC)c(O)cc2O)cc1 | 0.7 | 0.69 |  |  |
| CCOc1ccc(-c2snnc2-c2cc(CC)c(O)c(Cl)c2O)cc1 | 19 | 28 | > 20 | > 20 |
| COc1ccc(-c2snnc2-c2cc(Cl)c(O)c(Cl)c2O)cc1 |  |  | > 20 | > 20 |
| CCOc1ccc(-c2snnc2-c2cc(Cl)c(O)cc2O)cc1 | 3.6 | 6.9 |  |  |
